Series [1] relates to subjects with primary insomnia. Description: 001 Study Part B: polysomnography (LPS, WASO, SE). It counts as in vivo, human. The settings on record: zolpidem 10 mg single evening dose. An excerpt:
For Part B, 58 otherwise healthy subjects with primary insomnia were randomized across three cohorts, and stratified by gender. Part B also included an active control (zolpidem) and matching placebo. In each cohort, there were approximately 12 subjects in the compound A/zolpidem-matched placebo group, approximately four subjects in the zolpidem/compound A-matched placebo group, and approximately four subjects in the compound A-matched placebo/zolpidem-matched placebo group. Part B dosing occurred in the evening, 30 minutes prior to the sleep period. The starting dose for Part B was 3 dose levels that determined to be safe and well tolerated in Part A. Subsequent dose levels in Part B were determined based on the PD results of the first cohort in Part B and PD and safety results from at least 3 completed higher dose cohorts in Part A. Each cohort in Part B was divided into at least two groups, with dosing of each group staggered by a minimum of 2 days.
(§1) After the initial Screening visit, eligible subjects were scheduled to return to the clinic for 2 days during the Screening Period to conduct screening/baseline PSGs. These two days occurred at least 3 days after the initial Screening visit and within a window from Day-7 to Day-6 (±2 days). The first PSG was used to screen for sleep apnea and periodic limb movements in sleep (PLMS) and serve as the first baseline PSG. The second PSG was used as the second baseline PSG. Specific PSG variables were used to determine whether subjects met PSG inclusion criteria, and the average of PSG variables from these two PSGs was used as Baseline for this PD measure. Subjects who had met PSG inclusion criteria returned to the clinic on Day-1 for additional baseline procedures and randomization. Subjects were not allowed to nap on Day 1. On the evening of Day 1, after fasting a minimum of 3 hours, study drug was administered 30 minutes prior to the subject's habitual bedtime (lights-out), as calculated from the sleep diary for the first PSG during the Screening Period. PK blood samples were collected at prespecified timepoints, and PD assessments were performed. PSG was recorded on Day 1, postdose. Subjects were administered additional PD assessments each morning on Day 1 through Day 6. These assessments included the KSS, DSST, and PVT, in order to assess daytime sleepiness, level of alertness, and ability to concentrate. The KSS and DSST were also administered 5 minutes predose and 25 minutes postdose on Day 1, just prior to lights-out. Waketime Questionnaires were administered after the PD assessments within 15 minutes of lights-on, on Day 1 to Day 6. Time and duration of naps was recorded on Day 2.
In addition, PSG was performed during the Screening Period at Days-7 and -6 (±2 days), and postdose on Day 1. An 8-hour diagnostic PSG consisting of electroencephalogram (EEG), electrooculogram (EOG), electromyogram (EMG), ECGs, leg electrodes, and measures of respiratory function (airflow, respiratory effort, and oxygen saturation) were performed starting at the subject's habitual bedtime as determined from the sleep diary for the 3 nights immediately prior to the first PSG on Day-7 (±2 days). PSG variables from this night were used to screen for sleep apnea and PLMS. On Day-6 (±2) and postdose on Day1, standard PSGs (i.e., not including leg electrodes or measures of respiratory function other than oxygen saturation) were performed. Specified PSG variables from these two PSGs conducted during the Screening Period were used to determine whether subjects met PSG inclusion criteria. The average of PSG variables from these two PSGs conducted during the Screening Period were used as baseline PSG values. The key PD parameters such as PSG LPS, TST, SE, and WASO have been obtained from all PSG recordings.

In series [2] the test system is subjects with primary insomnia. Description: 001 Study Part B: next day KSS, DSST, PVT. It is filed as in vivo, human. The settings on record: any dose of compound A (2.5, 10, 25 mg); zolpidem 10 mg.
Description: as §1
Part B subjects were administered the KSS, DSST, and PVT within 15 minutes after lights-on specifically in that order, on each morning from Day 1 through Day 6, followed by the Waketime Questionnaire. The KSS and DSST were also administered 5 minutes predose and 25 minutes postdose on Day 1 (just prior to lights-out).

As for `Cc1ccc(-c2nc3ccc(C)cn3c2CC(=O)N(C)C)cc1` [zolpidem, reference compound], the “change from Baseline in SE” value in series [1] is on record as 13%. The “next day effects on KSS, DSST, or PVT” value in series [2] is given as “no clinically significant next day effects”.

(Values after patent US11026944B2, “Compositions and methods for treating insomnia” (Eisai R&D Management Co., Ltd., priority 2014, dated 2021).)
